This note sets out measurements from the supplement of paper PMC10307832.

Compound in one experiment: Cc1cnc(Nc2ccc(OCCN3CCCC3)cc2)nc1Nc1cccc(S(=O)(=O)NC(C)(C)C)c1 [Fedratinib]
In words: relative viability (nuclei count vs DMSO), 5 days (fraction); higher = more cells survive. Put shortly: (§1)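 Five library-drug doses spaced by √10 were pinned onto vehicle-anchored 1536-well plates of lung cancer cell lines that had been kept overnight at 37 °C. Cells went 5 days without medium change, then were fixed, permeabilised and Hoechst-stained together, imaged at 4× and counted by MetaXpress. Viability is the ratio of treated-well to vehicle-well nuclei, taken as a median over plates. Plates required control CV below 25% and at least one doubling.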

Compound in the next experiment: COC1=CC=C(C=C1)COC2=C(C=C(C=C2)CC3=CN=C(N=C3N)N)OC [GW-2580]
Described as above. In a few lines: as §1

As to UMC-11, the relative viability in the experiment with Fedratinib (0.1 µM) worked out at 0.914; in the experiment with Fedratinib (0.3162 µM), 0.894; with Fedratinib (1 µM), 0.67; with GW-2580 (0.08 µM), 1.05; with GW-2580 (0.8 µM) it was 1.11; with GW-2580 (2.53 µM), 0.923. Further, the relative viability with GW-2580 (8 µM) was 1.2.
